Assay results reported in PubChem BioAssay (NCI).
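96-well plates; 48 h exposure; 5 concentrations. Endpoints by linear interpolation between flanking doses. Not reached: highest tested concentration assigned. Here, GI50 denotes the concentration required for 50% inhibition of growth. TGI denotes the concentration required for complete inhibition of growth.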

Columns and labels:
Assay in all cases: NCI anticancer screen, dose series, 48 h
KM12 colon = system: KM12 colon
HOP-62 NSCLC = system: HOP-62 NSCLC
U251 CNS = system: U251 CNS
SNB-75 CNS = system: SNB-75 CNS
CCRF-CEM leukemia = system: CCRF-CEM leukemia
HL-60(TB) leukemia = system: HL-60(TB) leukemia
MOLT-4 leukemia = system: MOLT-4 leukemia
OVCAR-5 ovarian = system: OVCAR-5 ovarian
PC-3 prostate = system: PC-3 prostate
EKVX NSCLC = system: EKVX NSCLC

SMILES	GI50 (KM12 colon) [µM]	TGI (KM12 colon) [µM]	GI50 (HOP-62 NSCLC) [µM]	TGI (HOP-62 NSCLC) [µM]	GI50 (U251 CNS) [µM]	TGI (U251 CNS) [µM]	GI50 (SNB-75 CNS) [µM]	TGI (SNB-75 CNS) [µM]	GI50 (CCRF-CEM leukemia) [µM]	TGI (CCRF-CEM leukemia) [µM]	GI50 (HL-60(TB) leukemia) [µM]	TGI (HL-60(TB) leukemia) [µM]	GI50 (MOLT-4 leukemia) [µM]	TGI (MOLT-4 leukemia) [µM]	GI50 (OVCAR-5 ovarian) [µM]	TGI (OVCAR-5 ovarian) [µM]	GI50 (PC-3 prostate) [µM]	TGI (PC-3 prostate) [µM]	TGI (EKVX NSCLC) [µM]	GI50 (EKVX NSCLC) [µM]
Nc1nc(N)c2nc3c(nc2n1)CCCCCCCCCC3	8.6	> 100	4.47	> 100	2.71	> 100	5.35	51.2	6.24	> 100	1.95	> 100	3.83	> 100	1.75	> 100	5.73	> 100	–	–
CCC1(CN(C)C)CC/C(=C\c2ccc(OC)c(OC)c2)C1=O (stereo not drawn)	–	> 100	–	> 100	–	> 100	–	> 100	–	> 100	–	> 100	–	> 100	–	> 100	–	–	> 100	–
CC1SC2(CCCCC2)N(NC(=O)c2[nH]c3ccc(Br)cc3c2-c2ccccc2)C1=O (stereo not drawn)	16.1	> 100	37	> 100	41.3	> 100	22.6	90	7	> 100	–	–	3.95	> 100	58.7	> 100	7.45	89.2	> 100	> 100
O=c1c2cc3c(cc2c2cccc4c2n1CCC4)OCO3	–	> 100	–	> 100	–	73.5	–	> 100	–	> 100	–	> 100	–	> 100	–	> 100	–	–	99.5	–
COc1ccc(CCN2CCC(CN(C)Cc3cnn(-c4ccccc4)c3)CC2)cc1	15.4	30.8	15.4	35.6	13	27	8.83	21.2	21	78.6	20	48.4	12.8	66.7	14.8	58.3	25.1	> 100	–	–
COc1cc2ccnc3c(=C(SC)SC)c(=O)c(c1OC)c23	–	53.5	–	> 100	–	> 100	–	21.8	–	17	–	5.04	–	23.8	–	35.9	–	–	–	–
O=c1cccc(-c2cccc(=O)[nH]2)[nH]1	–	> 100	–	–	–	> 100	–	> 100	–	> 100	–	> 100	–	> 100	–	–	–	–	> 100	–
N#Cc1cccc(C=NC23CC4CC(CC(C4)C2)C3)c1	–	> 100	–	> 100	–	> 100	–	–	–	> 100	–	42.2	–	> 100	–	> 100	–	–	> 100	–
COc1ccc(-c2csc(NC(=O)CN3CCN(c4cc5c(cc4F)c(=O)c(C(=O)O)cn5C4CC4)CC3)n2)cc1	3.37	> 100	3.59	26.1	3.03	13.9	3.31	34.2	3.59	> 100	–	–	–	–	–	–	3.82	> 100	> 100	4.39
OCCN(CCO)c1cccc(N(CCO)CCO)n1	–	> 100	–	> 100	–	> 100	–	> 100	–	> 100	–	> 100	–	> 100	–	–	–	–	> 100	–
COc1cccc(SSc2cccc(OC)c2C(=O)O)c1C(=O)O	–	> 100	–	> 100	–	> 100	–	> 100	–	> 100	–	> 100	–	> 100	–	> 100	–	–	> 100	–
O=C1CC/C(=C/COc2cc(=O)oc3ccccc23)O1	7.14	25.1	14.3	31.1	11	23.4	1.58	11.8	3.1	21.5	–	–	3.78	> 100	3.68	22.2	5.23	23.9	40.1	17.9
Cc1ccc(S(=O)(=O)N/N=C/C(C)C)cc1	–	> 100	–	> 100	–	> 100	–	> 100	–	> 100	–	> 100	–	> 100	–	> 100	–	–	> 100	–
COC(=O)C(C(=O)OC)C(Br)C(Br)C(Br)c1ccccc1 (stereo not drawn)	17	32.4	16.9	36	14.8	28	12.5	25	2.08	5.79	2.59	6.47	4.11	16.8	19.9	37.5	11.5	24.6	–	–
CC(=O)NC(C=O)C(O[C@H](C)C(=O)NC(C)C(=O)NC(CCC(N)=O)C(=O)OCc1ccccc1)C(O)C(O)COC(=O)CCNc1c2ccccc2nc2cccc([N+](=O)[O-])c12 (stereo partly drawn)	–	3.75	–	10.2	–	7.14	–	17.8	–	34.6	–	31.8	–	14.8	–	13.2	–	–	22.3	–
c1ccc(OCc2nnc3n2N=C(c2ccccc2)CS3)cc1	–	> 100	–	> 100	–	> 100	–	95.1	–	> 100	–	> 100	–	> 100	–	> 100	–	–	–	–
Cc1ccc(NC(=O)CCc2n[nH]c(=S)o2)cc1	–	> 100	–	> 100	–	> 100	–	> 100	–	> 100	–	> 100	–	> 100	–	> 100	–	–	> 100	–
Cn1cc(C2=C(Nc3ccccc3)C(=O)NC2=O)c2ccccc21	17	> 25	> 25	> 25	> 25	> 25	> 25	> 25	> 25	> 25	> 25	> 25	> 23.1	> 25	> 25	> 25	> 25	> 25	–	–
CC(=O)c1ccc(NC(=O)COC(=O)c2cccc3c(=O)c4ccccc4[nH]c23)cc1	–	> 100	–	90.7	–	86.5	–	31.5	–	> 100	–	> 100	–	> 100	–	–	–	–	> 100	–

SMILES	GI50 (KM12 colon) [µM]	TGI (KM12 colon) [µM]	GI50 (HOP-62 NSCLC) [µM]	TGI (HOP-62 NSCLC) [µM]	GI50 (U251 CNS) [µM]	TGI (U251 CNS) [µM]	GI50 (SNB-75 CNS) [µM]	TGI (SNB-75 CNS) [µM]	GI50 (CCRF-CEM leukemia) [µM]	TGI (CCRF-CEM leukemia) [µM]	GI50 (HL-60(TB) leukemia) [µM]	TGI (HL-60(TB) leukemia) [µM]	GI50 (MOLT-4 leukemia) [µM]	TGI (MOLT-4 leukemia) [µM]	GI50 (OVCAR-5 ovarian) [µM]	TGI (OVCAR-5 ovarian) [µM]	GI50 (PC-3 prostate) [µM]	TGI (PC-3 prostate) [µM]	TGI (EKVX NSCLC) [µM]	GI50 (EKVX NSCLC) [µM]
CC(=O)Nc1n[n+]([O-])c2cc(C)ccc2[n+]1[O-]	–	11.3	–	11.4	–	14.2	–	12	–	> 47.4	–	–	–	> 100	–	33.5	–	14.8	16.8	–
CCCCCCCCCCCc1c(O)c(=O)c2c(oc3c(=O)c(CCCCCCCCCCC)c(O)c(=O)c3n2-c2ccc(N(C)C)cc2)c1=O	–	26.8	–	45.9	–	44.1	–	62.4	–	60.5	–	90.4	–	> 100	–	50.9	–	–	67.7	–
Cc1c2c(c(C)c3c1[nH]c1ccccc13)CN(C)CC2	–	33.9	–	> 100	–	26	–	28.8	–	> 100	–	> 100	–	> 100	–	> 100	–	–	–	–
NC(=O)NC1C(C(=O)O)N(Cc2ccccc2)C(=O)N1Cc1ccccc1 (stereo not drawn)	–	> 100	–	> 100	–	> 100	–	> 100	–	> 100	–	> 100	–	10.9	–	> 100	–	–	> 100	–
Cl.Fc1c[c-]c(-c2ccccn2)c(F)c1.[Pt].c1ccc([PH+](C[PH+](c2ccccc2)c2ccccc2)c2ccccc2)cc1	0.276	1	–	–	–	–	0.183	0.781	–	–	0.233	0.67	–	–	0.324	1.18	0.276	1.14	1.05	0.261
O=C(O)c1c(Br)c(Br)c(Br)c(Br)c1C1c2ccc(O)cc2Oc2cc(O)ccc21	–	> 100	–	> 100	–	> 100	–	> 100	–	–	–	30.1	–	> 100	–	> 100	–	> 100	> 100	–
COc1ccc(C(=O)C#Cc2c[nH]c(=O)[nH]c2=O)cc1	–	> 52.6	–	47.7	–	22.7	–	45.5	–	10.8	–	23.3	–	8.19	–	31	–	–	> 54.4	–
COc1cc(Cl)cc(-c2nn(-c3cccc(NC(=O)Nc4ccc(Cl)c(Cl)c4)c3)cc2-c2ccncc2)c1	2.02	10.8	3.38	35.1	1.7	6.03	2.11	48.6	2	6	2.19	5.68	1.69	6.13	4.36	> 100	1.13	5.28	–	–
Cc1nc2cc(Nc3nc(Nc4ccc(F)cc4)nc(N4CCOCC4)n3)ccc2n1Cc1ccccc1	3.77	14.2	9.06	24	1.99	4.6	2.73	20.4	2.75	8.2	2.07	4.73	2.7	8.04	12.3	28.6	2.91	16.8	–	–
COCCOCCOCCOc1cccc2c1C(=O)c1cccc(OCCOCCOCCOC)c1C2=O	–	–	–	> 100	–	> 100	–	> 100	–	> 100	–	> 100	–	> 100	–	–	–	–	> 100	–
O=C1OC(=O)C2C3C=CC(C12)C1C2C=CC2C31 (stereo not drawn)	–	> 100	–	> 100	–	> 100	–	–	–	> 100	–	> 100	–	> 100	–	> 100	–	–	> 100	–
O=C(NCCCl)SCCO	–	> 100	–	> 100	–	> 100	–	> 100	–	> 100	–	> 100	–	> 100	–	> 100	–	–	> 100	–
COc1cccc(N2C(=O)C3C4C=C5c6ccccc6N(c6ccccc6)C5(C3C2=O)[C@H]2C(=O)N(c3cccc(OC)c3)C(=O)[C@@H]42)c1 (stereo partly drawn)	–	> 100	–	> 100	–	> 100	–	> 100	–	> 100	–	> 100	–	> 100	–	> 100	–	–	> 100	–
COc1cc(C)c2sc3ccccc3c(=O)c2c1NCCN(C)C	5.22	18.9	7.1	19.6	3.66	14.1	2.21	13.2	–	–	4.68	16.3	2.58	6.81	9.57	22.3	4.28	17.4	–	–
COc1ccc(C(=O)c2sc3nc(-c4cccs4)ccc3c2N)cc1OC	4.42	> 100	17.6	> 100	7.78	> 100	4.06	> 100	4.53	> 100	4.14	> 100	3.78	18	19.8	> 100	3.65	> 100	–	–
COC(=O)Cc1cc(=O)[nH]c2c1C(=O)CCC2	–	> 100	–	–	–	> 100	–	–	–	> 100	–	> 100	–	> 100	–	> 100	–	–	> 100	–
CC([O-])=C1C(=O)c2ccccc2C1=O.CC([O-])=C1C(=O)c2ccccc2C1=O.CC[O-].CC[O-].[Ti+4]	> 100	> 100	> 100	> 100	> 100	> 100	> 100	> 100	> 100	> 100	> 100	> 100	> 100	> 100	> 100	> 100	–	–	> 100	> 100
O=C1CCCCC12CCC/C2=N\O (stereo not drawn)	–	> 100	–	> 100	–	> 100	–	> 100	–	> 100	–	> 100	–	> 100	–	–	–	–	> 100	–
C=Cn1c([N+](=O)[O-])cnc1/C=C/c1ccc(C(=O)OCCN2CCOCC2)cc1	–	> 100	–	> 100	–	> 100	–	> 100	–	> 100	–	–	–	> 100	–	> 100	–	> 100	> 100	–
